Consider five compounds from patent US7495001B2, “Benzannelated derivatives, their manufacture and use as pharmaceutical agents” (Hoffmann-La Roche Inc., priority 2003, dated 2009).

One series has as its target T1, PPARα (Homo sapiens, UniProt Q07869).
T1 construct: PPARα (aa 167 to 469); made in house; host or cells: E. coli BL21 (pLysS)
T1 sequence (Q07869 167-468 limits assumed): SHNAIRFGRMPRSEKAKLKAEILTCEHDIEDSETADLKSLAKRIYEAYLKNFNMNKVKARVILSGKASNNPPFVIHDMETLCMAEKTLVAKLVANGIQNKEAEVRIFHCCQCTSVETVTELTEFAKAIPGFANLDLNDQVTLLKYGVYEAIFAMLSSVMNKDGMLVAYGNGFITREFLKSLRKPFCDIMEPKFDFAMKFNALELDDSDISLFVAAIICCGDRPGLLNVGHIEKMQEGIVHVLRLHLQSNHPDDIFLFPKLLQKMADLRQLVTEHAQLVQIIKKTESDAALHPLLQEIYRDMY
Nature of the series: PPARα radioligand binding assay (scintillation proximity, GST-PPARα-LBD). Particulars: GST-PPARα-LBD fusion protein, SPA radioligand binding. The text has this: (§1) Background information on the performed assays can be found in: Nichols J S et al. “Development of a scintillation proximity assay for peroxisome proliferator-activated receptor gamma ligand binding domain”, (1998) Anal. Biochem. 257:112-119.
(§2) Full-length cDNA clones for humans PPARδ and PPARα and mouse PPARγ were obtained by RT-PCR from human adipose and mouse liver cRNA, respectively, cloned into plasmid vectors and verified by DNA sequencing. Bacterial and mammalian expression vectors were constructed to produce glutathione-s-transferase (GST) and Gal4 DNA binding domain proteins fused to the ligand binding domains (LBD) of PPARδ (aa 139 to 442), PPARγ (aa 174 to 476) and PPARα (aa 167 to 469). To accomplish this, the portions of the cloned sequences encoding the LBDs were amplified from the full-length clones by PCR and then subcloned into the plasmid vectors. Final clones were verified by DNA sequence analysis.
(§3) Induction, expression, and purification of GST-LBD fusion proteins were performed in E. coli strain BL21 (pLysS) cells by standard methods (Ref: Current Protocols in Molecular Biology, Wiley Press, edited by Ausubel et al.).
(§4) Radioligand Binding Assay
(§5) PPARα receptor binding was assayed in TKE50 (50 mM Tris-HCl, pH 8, 50 mM KCl, 2 mM EDTA, 0.1 mg/ml fatty acid-free BSA and 10 mM DTT). For each 96 well reaction an 140 ng equivalent of GST-PPARα-LBD fusion protein was bound to 10 μg SPA beads (PharmaciaAmersham) in a final volume of 50 μl by shaking. The resulting slurry was incubated for 1 h at RT and centrifuged for 2 min at 1300 g. The supernatant containing unbound protein was removed and the semidry pellet containing the receptor-coated beads was resolved in 50 μl of TKE. […] All binding assays were performed in 96 well plates and the amount of bound ligand measured on a Packard TopCount using OptiPlates (Packard). Nonspecific binding was determined in the presence of 10^−4 M unlabelled compound. […]
(In a scintillation proximity assay essentially only radioactivity close to the scintillant gives light.)

A further series deals with T2, PPARγ (Mus musculus, UniProt P37238).
T2 construct: PPARγ (aa 174 to 476); made in house; host or cells: E. coli BL21 (pLysS)
T2 sequence (P37238 204-505): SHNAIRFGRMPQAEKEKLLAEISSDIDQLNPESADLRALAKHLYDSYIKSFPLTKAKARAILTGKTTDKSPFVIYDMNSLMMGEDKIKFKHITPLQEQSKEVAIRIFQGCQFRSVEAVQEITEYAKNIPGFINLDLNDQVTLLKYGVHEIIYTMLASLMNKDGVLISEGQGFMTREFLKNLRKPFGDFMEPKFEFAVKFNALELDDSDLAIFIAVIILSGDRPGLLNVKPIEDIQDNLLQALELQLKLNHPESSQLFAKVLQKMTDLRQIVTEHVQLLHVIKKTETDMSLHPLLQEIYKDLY
Nature of the series: PPARγ radioligand binding assay (scintillation proximity, GST-PPARγ-LBD). Particulars: GST-PPARγ-LBD fusion protein, SPA radioligand binding.
Text: as §1, §2, §3, §4
as §5, with “PPARγ” for “PPARα”, “GST-PPARγ-LBD” for “GST-PPARα-LBD”, “ul” for “μl”

A further series deals with T3, PPARδ (Homo sapiens, UniProt Q03181).
T3 construct: PPARδ (aa 139 to 442); made in house; host or cells: E. coli BL21 (pLysS)
T3 sequence (Q03181 139-441 limits assumed): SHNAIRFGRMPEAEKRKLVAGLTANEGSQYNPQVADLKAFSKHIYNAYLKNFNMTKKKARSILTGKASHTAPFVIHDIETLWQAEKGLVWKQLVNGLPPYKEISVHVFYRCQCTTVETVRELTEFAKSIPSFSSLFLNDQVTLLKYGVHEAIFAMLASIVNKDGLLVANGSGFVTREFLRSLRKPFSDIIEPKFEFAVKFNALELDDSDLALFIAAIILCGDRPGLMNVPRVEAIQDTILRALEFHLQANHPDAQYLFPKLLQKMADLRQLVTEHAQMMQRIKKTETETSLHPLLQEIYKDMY
Nature of the series: PPARδ radioligand binding assay (scintillation proximity, GST-PPARδ-LBD). The following applies: GST-PPARδ-LBD fusion protein, SPA radioligand binding.
Text: as §1, §2, §3, §4
PPARδ receptor binding was assayed in HNM10 (50 mM Hepes, pH 7.4, 10 mM NaCl, 5 mM MgCl2, 0.15 mg/ml fatty acid-free BSA and 15 mM DTT). For each 96 well reaction a 500 ng equivalent of GST-PPARδ-LBD fusion protein and radioligand, e.g. 20000 dpm {2-methyl-4-[4-methyl-2-(4-trifluoromethyl-phenyl)-thiazol-5-yl-ditritiomethylsulfanyl]-phenoxy}-acetic acid, was bound to 10 μg SPA beads (PharmaciaAmersham) in a final volume of 50 μl by shaking. The resulting slurry was incubated for 1 h at RT and centrifuged for 2 min at 1300 g. […] Radioligand was added and the reaction incubated at RT for 1 h and scintillation proximity counting performed in the presence of test compounds was determined. All binding assays were performed in 96 well plates and the amount of bound ligand was measured on a Packard TopCount using OptiPlates (Packard). […]

A word on the IC50: it is the concentration at which inhibition is half-maximal. Higher therefore signals weaker potency. For the compound `CCCC(c1ccc(-c2cccc(C(F)(F)F)c2)nc1C)N(C)c1ccc(OCC(=O)O)c2ccccc12` (racemic) [Example 3, [rac]-[4-(Methyl-{1-[2-methyl-6-(3-trifluoromethyl-phenyl)-pyridin-3-yl]-butyl}-amino)-naphthalen-1-yloxy]-acetic acid], the IC50 is 3580 nM on PPARα, greater than 10000 nM on PPARγ and 65 nM at PPARδ.
The matching figures for `Cc1nc(-c2ccc(C(F)(F)F)cc2)ccc1COc1ccc(CCC(=O)O)c2c1CCCC2` [Example 5, 3-{4-[2-Methyl-6-(4-trifluoromethyl-phenyl)-pyridin-3-ylmethoxy]-5,6,7,8-tetrahydro-naphthalen-1-yl}-propionic acid]: 716 nM, greater than 10000 nM and 106 nM.
As usually defined, the melting point is the temperature, or range, at which the solid turns liquid. Regarding `CCC(c1ccc(-c2cccc(C(F)(F)F)c2)nc1C)N(C)c1ccc(OCC(=O)O)c2ccccc12` (racemic) [Example 2, [rac]-[4-(Methyl-{1-[2-methyl-6-(3-trifluoromethyl-phenyl)-pyridin-3-yl]-propyl}-amino)-naphthalen-1-yloxy]-acetic acid], the melting point was in the range of 76 to 78 °C.
`Cc1nc(-c2ccc(C(F)(F)F)cc2)ccc1C(C)N(C)c1ccc(OCC(=O)O)c2ccccc12` (racemic) [Example 1, [rac]-[4-(Methyl-{1-[2-methyl-6-(4-trifluoromethyl-phenyl)-pyridin-3-yl]-ethyl}-amino)-naphthalen-1-yloxy]-acetic acid] came in with a melting point of 157 to 158 °C.
`COC(Cc1cc(OCCc2ccc(-c3ccc(C(F)(F)F)cc3)nc2C)c2ccccc2c1)C(=O)O` (racemic) [Example 4, [rac]-2-Methoxy-3-(4-{2-[2-methyl-6-(4-trifluoromethyl-phenyl)-pyridin-3-yl]-ethoxy}-naphthalen-2-yl)-propionic acid]: the figures for the half-maximal inhibitory concentration (IC50) on PPARα, on PPARγ and on PPARδ were 37 nM, greater than 10000 nM and 295 nM, respectively.
